Data published in ChEMBL document CHEMBL5226290, “Rational design of SphK inhibitors using crystal structures aided by computer” (Eur J Med Chem, 2021).
Values belong to the compound of their own block, whether it stands above or below them.

How the values were obtained:
[1] = molecular target: T1, Sphingosine kinase 2 (Homo sapiens, UniProt Q9NRA0); assay: Inhibition of SphK2 (unknown origin) assessed as inhibition constant
T1 sequence (Q9NRA0 whole entry): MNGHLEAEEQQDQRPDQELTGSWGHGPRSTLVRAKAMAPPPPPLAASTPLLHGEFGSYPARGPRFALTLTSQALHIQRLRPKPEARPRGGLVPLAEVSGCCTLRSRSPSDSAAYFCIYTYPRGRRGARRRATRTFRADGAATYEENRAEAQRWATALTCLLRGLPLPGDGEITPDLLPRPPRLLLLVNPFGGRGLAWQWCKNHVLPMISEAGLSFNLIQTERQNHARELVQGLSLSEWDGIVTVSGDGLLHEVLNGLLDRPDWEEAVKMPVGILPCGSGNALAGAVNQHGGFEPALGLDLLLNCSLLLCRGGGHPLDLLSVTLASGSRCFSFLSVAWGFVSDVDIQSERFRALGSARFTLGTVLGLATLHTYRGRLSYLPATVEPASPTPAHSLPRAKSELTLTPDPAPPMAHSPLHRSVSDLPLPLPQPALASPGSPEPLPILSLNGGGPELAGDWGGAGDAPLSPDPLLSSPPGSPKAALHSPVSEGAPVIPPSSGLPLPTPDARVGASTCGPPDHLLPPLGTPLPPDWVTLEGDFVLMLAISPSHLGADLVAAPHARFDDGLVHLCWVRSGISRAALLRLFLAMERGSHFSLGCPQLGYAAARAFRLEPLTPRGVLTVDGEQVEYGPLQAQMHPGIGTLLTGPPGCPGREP

[2] = molecular target: T2, Sphingosine kinase 1 (Homo sapiens, UniProt Q9NYA1); assay: Inhibition of SphK1 (unknown origin) assessed as inhibition constant
T2 sequence (Q9NYA1 whole entry, the tested form may be a part): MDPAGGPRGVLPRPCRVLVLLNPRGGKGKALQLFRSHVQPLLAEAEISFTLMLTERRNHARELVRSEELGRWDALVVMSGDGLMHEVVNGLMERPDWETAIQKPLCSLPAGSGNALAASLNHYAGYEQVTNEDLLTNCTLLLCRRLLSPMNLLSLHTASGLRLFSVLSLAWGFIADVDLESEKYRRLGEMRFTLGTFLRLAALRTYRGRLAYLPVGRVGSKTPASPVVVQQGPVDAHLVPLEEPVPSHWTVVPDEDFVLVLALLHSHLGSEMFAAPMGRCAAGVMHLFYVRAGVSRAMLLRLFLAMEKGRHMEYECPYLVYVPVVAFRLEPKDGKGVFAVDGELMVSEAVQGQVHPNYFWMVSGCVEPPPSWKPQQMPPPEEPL

[3] = molecular target: T2, Sphingosine kinase 1; assay: Inhibition of recombinant GST-tagged SphK1 (unknown origin) (1 to 384 residues) expressed in baculovirus using sphingosine as substrate incubated for 1 hr in presence of ATP by electrophoretic mobility shift assay
[4] = molecular target: T1, Sphingosine kinase 2; assay: Inhibition of recombinant GST-tagged SphK2 (unknown origin) (1 to 618 residues) expressed in baculovirus using sphingosine as substrate incubated for 1 hr in presence of ATP by electrophoretic mobility shift assay
[5] = molecular target: T1, Sphingosine kinase 2; assay: Inhibition of SphK2 (unknown origin)
[6] = molecular target: T2, Sphingosine kinase 1; assay: Inhibition of SphK1 (unknown origin)
[7] = molecular target: T2, Sphingosine kinase 1; assay: Inhibition of SphK1 (unknown origin) using ATP as substrate preincubated for 40 mins followed by substrate addition and measured after 5 mins by spectrophotometric analysis
[8] = molecular target: T2, Sphingosine kinase 1; assay: Inhibition of recombinant SphK1 (unknown origin) using NBD-sphingosine as substrate in presence of ATP by fluorescence plate reader analysis
[9] = molecular target: T1, Sphingosine kinase 2; assay: Inhibition of recombinant SphK2 (unknown origin) using NBD-sphingosine as substrate in presence of ATP by fluorescence plate reader analysis
[10] = molecular target: T1, Sphingosine kinase 2; assay: Inhibition of SphK2 (unknown origin) using ATP as substrate preincubated for 40 mins followed by substrate addition and measured after 5 mins by spectrophotometric analysis
[11] = molecular target: T3, Sphingosine kinase 2 (Mus musculus, UniProt Q9JIA7); assay: Inhibition of recombinant mouse SphK2 expressed in baculovirus infected Sf9 cells using D-erythro-sphingosine and [gamma-32P]ATP as substrate incubated for 30 mins by liquid scintillation counting analysis
T3 sequence (Q9JIA7 whole entry): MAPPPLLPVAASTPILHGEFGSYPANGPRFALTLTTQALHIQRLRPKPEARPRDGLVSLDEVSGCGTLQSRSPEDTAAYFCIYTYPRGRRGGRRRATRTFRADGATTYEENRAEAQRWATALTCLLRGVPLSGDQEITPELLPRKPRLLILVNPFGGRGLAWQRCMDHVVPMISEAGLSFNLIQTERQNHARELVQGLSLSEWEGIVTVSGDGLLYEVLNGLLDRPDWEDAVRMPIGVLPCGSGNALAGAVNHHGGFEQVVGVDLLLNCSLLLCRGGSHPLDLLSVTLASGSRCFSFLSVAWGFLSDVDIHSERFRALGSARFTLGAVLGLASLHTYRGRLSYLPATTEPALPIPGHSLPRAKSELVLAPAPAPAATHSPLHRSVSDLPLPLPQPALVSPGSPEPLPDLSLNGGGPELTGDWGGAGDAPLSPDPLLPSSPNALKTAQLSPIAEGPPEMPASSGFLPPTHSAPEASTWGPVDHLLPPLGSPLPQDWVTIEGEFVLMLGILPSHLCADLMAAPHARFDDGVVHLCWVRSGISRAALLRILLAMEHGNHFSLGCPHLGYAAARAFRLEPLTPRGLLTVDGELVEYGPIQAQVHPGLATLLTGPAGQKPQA

[12] = molecular target: Sphingosine kinase 1 (Mus musculus, UniProt Q8CI15); assay: Inhibition of recombinant mouse SphK1 expressed in baculovirus infected Sf9 cells using D-erythro-sphingosine and [gamma-32P]ATP as substrate incubated for 30 mins by liquid scintillation counting analysis
Sphingosine kinase 1 (Mus musculus, UniProt Q8CI15), sequence (Q8CI15 whole entry): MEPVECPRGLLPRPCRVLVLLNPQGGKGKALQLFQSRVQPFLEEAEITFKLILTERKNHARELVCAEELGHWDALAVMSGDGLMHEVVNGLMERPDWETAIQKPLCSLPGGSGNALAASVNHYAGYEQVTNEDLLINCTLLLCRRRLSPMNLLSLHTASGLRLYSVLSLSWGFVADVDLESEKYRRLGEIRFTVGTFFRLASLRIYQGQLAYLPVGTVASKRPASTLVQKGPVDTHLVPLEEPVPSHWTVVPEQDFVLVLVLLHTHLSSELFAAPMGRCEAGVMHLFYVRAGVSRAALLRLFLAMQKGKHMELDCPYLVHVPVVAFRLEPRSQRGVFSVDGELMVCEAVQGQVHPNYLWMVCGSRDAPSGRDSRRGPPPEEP

- Ki [1]: 8 µM
Structure (SMILES): Oc1ccc(Nc2nc(-c3ccc(Cl)cc3)cs2)cc1

- Ki [2]: 0.3 µM
Structure (SMILES): CC(=O)N(C1=C(Cl)C(=O)c2ccccc2C1=O)C1CCCCC1

- IC50 [8]: 3.1 µM
Structure (SMILES): COc1ccc2[nH]c(=O)c(/C=C/C(=O)c3ccc(Nc4nccc(-c5ccc6ccccc6c5)n4)cc3)cc2c1

- IC50 [8]: > 650 µM
- IC50 [9]: 71 µM
Structure (SMILES): Brc1cc2c(c3ccccc13)N1OC(C2)CC1CCc1ccccc1 (centres undefined)

More lines, now with the values behind:

Structure (SMILES): CCCCCCCCCCCCCC[C@@H]1OC[C@@H](N)[C@@H]1O
- IC50 [3]: 5.3 µM
- IC50 [4]: 1.6 µM

Structure (SMILES): CCCCCCCCCCCCCC[C@@H]1OC[C@H](N)[C@@H]1O
- IC50 [5]: 6.6 µM
- IC50 [6]: 4.6 µM

Structure (SMILES): CCCCCCCCCCCCC/C=C/[C@H](O)[C@@H](CO)N(C)C
- Ki [1]: 12 µM

Structure (SMILES): N[C@H]1CN[C@H](CCCCCCCCCCCOC2CCOCC2)[C@H]1O
- IC50 [7]: 0.8 µM

Structure (SMILES): CCCCCCCCCCCCC/C=C/C(O)C(CO)NC(=N)N (centres undefined)
- Ki [2]: 0.04 µM
- Ki [1]: 0.3 µM

Structure (SMILES): CCCOCCCCCCCCCC[C@@H]1OC[C@@H](N)[C@@H]1O
- IC50 [7]: > 30 µM
- IC50 [10]: 3.2 µM

Structure (SMILES): CCCCCCCCOc1ccc2cc(-c3noc(C4[C@@H](O)CCN4C(=N)N)n3)ccc2c1 (single isomer, unassigned)
- Ki [11]: 1 µM
- Ki [12]: 20 µM

Structure (SMILES): CCCCCCCCCCCCCC[C@H]1OC[C@H](N)[C@@H]1O [2-EPI JASPINE B]
- IC50 [7]: 4.3 µM
- IC50 [10]: 24.8 µM
